Experiment [1] concerns Rat secreted gastric acid. The experiment in a line: Antiulcer effect: rat secreted gastric acid inhibiting effect (pylorus ligature). It counts as in vivo, Male wistar strain rats. The following applies: 100 μg/kg, s.c., immediately after pylorus ligature; for Inhibition percentage: gastric acid vs. control group; for Amount of gastric acid secreted: gastric juice sampled after 4 hours, solvent 73.6 ± 4.3. The protocol: Male wistar strain rats (weighing 250-280 g) were fasted for 18 hours and subjected to peritoneotomy under ether anesthesia for ligature of pylorus, and after 4 hours under abstinence from food and water, gastric juice was sampled. The gastric juice was centrifuged at 3000 rpm for 10 minutes, and then the amount, pH and acidity of the gastric juice were measured. The acidity was measured by titration bymeans of an automatic titrating device (produced by Toa Denpa Kogyo) with a 0.1 N NaOH to pH 7.0 and calculated according to the following formula: [formula]
The gastric juice secretion inhibition percentage was calculated according to the following formula: [formula] A: Amount of gastric acid excreted in Control group B: Amount of gastric acid excreted in Drug group.
The drugs to be tested were administrated subcutaneously immediately after pylorus ligature.

The subject of experiment [2] is Human platelet aggregation. In words: Platelet aggregation inhibiting effect (human platelet rich plasma, ADP induced, in vitro). To be noted: 1 min, human PRP, ADP 2 to 10 μM, 37° C., one minute incubation, read-out: Platelet aggregation inhibiting ratio (IC50). It counts as cell-based. The procedure: Bloods were sampled from healthy male adults (22 to 34 years old) with no administration of drug for 2 weeks or more early in the morning when they were hungry. By use of an injector filled with a 3.8% sodium citrate solution, 50 ml of blood was sampled, immediately stirred by turning upside down and centrifuged at 200 G for 15 minutes. The supernatant was separated as the PRP (platelet rich plasma) and the residue was further subjected to centrifugation at 2000 G for 15 minutes, followed by recovery of the supernatant as PPP (poor platelet plasma) which ws provided for use in the experiment. 250 μl of PRP was placed in a cuvette, 5 μl of an 1% aqueous ethanol solution of the compound of the present invention or an 1% acqueous ethanol solution was added, and incubation was carried out at 37° C. for one minute. Then, an aggregation inducing agent (ADP) was added and the process of aggregation was recorded by Aggregometer (produced by Sienco Co.). As the concentration of ADP, the minimum concentrations of ADP (2 to 10 μM) to give the maximum aggregation for respective platelets were employed. The inhibition percentage of platelet aggregation was calculated by the following formula:
Inhibition percentage=(A-B/A)×100
A: Maximum aggregation ratio during addition of solvent ([…] aqueous ethanol solution)
B: Maximum aggregation ratio during addition of the compound of the present invention.
The platelet aggregation inhibiting effects of the compounds of the present invention are shown in terms of IC50 values in Table 1.

Molecules are shown by their SMILES.

Regarding `O=C(O)COCCC1=C[C@H]2C[C@@H](O)[C@H](C#CC(O)C3CCCCC3)[C@H]2C1` (stereo partly shown) [drawing 52], in experiment [1], the Inhibition percentage stood at 0% and the “Amount of gastric acid secreted” value came out at 84.9 ± 10.8 mEq/l.

As for `O=C(O)CCC=CC1=C[C@H]2C[C@@H](O)[C@H](C#CC(O)C3CCCCC3)[C@H]2C1` (stereo partly shown) [drawing 50], in experiment [1], the Inhibition percentage worked out at 7.1% and the “Amount of gastric acid secreted” value came to 68.4 ± 10.1 mEq/l.

As to `O=C(O)CCC/C=C1\C[C@H]2C[C@@H](O)[C@H](/C=C/[C@@H](O)C3CCCC3)[C@H]2C1` [OP-41483, reference compound], in experiment [2], the IC50 stood at 12 nM.

With `O=C(O)COCCC1=C[C@H]2C[C@@H](O)[C@H](C#CC(O)C3CCCCC3)[C@H]2C1` (stereo partly shown) [drawing 48], in experiment [2], the IC50 came out at 4.5 nM.

`O=C(O)CCC=CC1=C[C@H]2C[C@@H](O)[C@H](C#CC(O)C3CCCCC3)[C@H]2C1` (stereo partly shown) [drawing 46]: the IC50 in experiment [2] is 10 nM.
